# Laboratory results from patent publication US5846942A, “Cholecystokinin antagonists, their preparation and therapeutic use” (Warner-Lambert Company, priority 1996, dated 1998).
# Target: T1, Central CCK Receptors (Mus musculus, UniProt P56481)
# T1 construct: from tissue; host or cells: cerebral cortex membranes of male CFLP mice (30-40 g)
# T1 sequence (P56481 1-453): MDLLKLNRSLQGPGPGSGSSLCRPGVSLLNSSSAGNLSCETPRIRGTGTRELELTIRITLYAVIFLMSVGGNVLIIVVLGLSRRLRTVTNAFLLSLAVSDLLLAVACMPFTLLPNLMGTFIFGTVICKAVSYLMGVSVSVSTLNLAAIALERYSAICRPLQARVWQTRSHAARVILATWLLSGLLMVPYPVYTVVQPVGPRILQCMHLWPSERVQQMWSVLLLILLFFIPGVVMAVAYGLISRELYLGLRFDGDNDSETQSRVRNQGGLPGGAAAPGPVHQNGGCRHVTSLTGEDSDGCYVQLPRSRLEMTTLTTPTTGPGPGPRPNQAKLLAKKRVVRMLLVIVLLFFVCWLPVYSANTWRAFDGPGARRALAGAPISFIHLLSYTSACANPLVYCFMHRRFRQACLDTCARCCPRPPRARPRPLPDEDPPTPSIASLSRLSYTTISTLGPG
# Assay: Binding to central CCK receptors, displacement of tritiated pentagastrin from cerebral cortical membranes of male CFLP mice
# Design: species or system mouse (male CFLP)
# Conditions: cerebral cortexes taken from male CFLP mice; 2 nM tritiated-pentagastrin
# Method: The biological activity of compounds of the present invention was evaluated employing an initial screening test which rapidly and accurately measured the binding of the tested compound to known CCK receptor sites. […] (See Hays et al, Neuropeptides 1:53-62, 1980; and Satuer et al, Science 208:1155-1156, 1980).
# In this screening test, the cerebral cortices taken from male CFLP mice weighing between 30-40 g were dissected on ice, weighed, and homogenized in 10 volumes of 50 mM Tris-HCl buffer (pH 7.4 at 0°-4° C.). The resulting suspension was centrifuged, the supernate was discarded, and the pellet was washed by resuspension in Tris-HCl buffer followed by recentrifugation. The final pellet was resuspended in 20 volumes of […] Hepes buffer (pH 7.2 at 23° C.) containing 130 mM NaCl, […] KCl, […] MgCl2, […] EDTA, 5 mg/mL bovine albumin, and bacitracin (0.25 mg/mL).
# In saturation studies, cerebral cortical membranes were incubated at 23° C. for 120 minutes in a final volume of 500 μL of Hepes incubation buffer (pH 7.2) together with […] tritiated-pentagastrin (Amersham International, England).
# In the displacement experiments, membranes were incubated with a single concentration (2 nM) of ligand, together with increasing concentrations (10^-11 to […]) of competitive test compound. In each case, the nonspecific binding was defined as that persisting in the presence of the unlabeled octapeptide CCK26-33 (10^-6 M)
# Following incubation, radioactivity bound to membranes was separated from that free in solution by rapid filtration through Whatman GF/B filters and washed three times with 4 mL of ice cold Tris-HCl buffer. Filters from samples incubated with tritiated-pentagastrin were placed in polyethylene vials with 4 mL of scintillation cocktail, and the radioactivity was estimated by liquid scintillation spectrometry (efficiency 47-52%).
# Saturation curves for specific tritiated- pentagastrin binding to mouse cortical membranes were analyzed by the methods of Scatchard (Ann. New York Acad. Sci. 51:660-672, 1949, and Hill (J. Physiol. 40:IV-VIII, 1910), to provide estimates for the maximum number of binding sites (Bmax) and the equilibrium dissociation constant (Ka).
# In displacement experiments, inhibition curves were analyzed by either logit-log plots or the iterative curve fitting computer program ALLFIT (DeLean, Munson and Redbard, 1978) to provide estimates of the IC50 and nH (apparent Hill coefficient) values).
# The inhibition constant (Ki) of the test compound was then calculated according to the Cheng-Prusoff equation: [formula] where [L] is the concentration of radiolabel and Ka is the equilibrium dissociation constant.
row,Ki,Compound
1,3.5 nM,"C[C@](Cc1c[nH]c2ccccc12)(NC(=O)OC1C2CC3CC(C2)CC1C3)C(=O)NC1CCCCC1C#N (stereo partly shown) [Example 116, Carbamic acid [2-[(2-cyanocyclohexyl)amino]-1-(1H-indol-3-ylmethyl)-1-methyl-2-oxoethyl]-1H-tricyclo-[3.3.1.1^3,7]dec-2-yl ester]"
2,550 nM,"C[C@](Cc1c[nH]c2ccccc12)(NC(=O)OC1C2CC3CC(C2)CC1C3)C(=O)NCCC(=O)N[C@H](Cc1ccccc1)C(N)=O (stereo partly drawn) [Example 25, D-Phenylalanamide, α-methyl-N-[(tricyclo[3.3.1.1^3,7]-dec-2-yloxv)carbonyl]-D-tryotophyl-β-alanyl-]"
3,1 nM,"C[C@](Cc1c[nH]c2ccccc12)(NC(=O)OC1C2CC3CC(C2)CC1C3)C(=O)NC1CCCCC1C(=O)O (stereo partly drawn) [Example 115, [1S-[α(S*),2B]] and [1R-[α(R*),28β]]^sP 2-[[3-(1H-indol-3-yl)-2-methyl-1-oxo-2-[(tricyclo[3.3.1.1^3,7]dec-2-yloxy)carbonyl]amino]propyl]amino]cyclhexanecarboxylic acid]"
4,92 nM,"C[C@](Cc1c[nH]c2ccccc12)(NC(=O)OC1C2CC3CC(C2)CC1C3)C(=O)NCCC(=O)N[C@@H](Cc1ccccc1)C(N)=O (stereo partly drawn) [Example 26, L-Phenylalaninamide, α-methyl-N-[(tricyclo [3.3.1.1^3,7]-dec-2-yloxy)carbonyl]-D-tryptophvl-β-alanyl-]"
5,942 nM,"C[C@](CC(=O)N[C@H](C(=O)O)c1ccccc1)(Cc1c[nH]c2ccccc12)NC(=O)OC1C2CC3CC(C2)CC1C3 (stereo partly drawn) [Example 90, N-[D-3-(1H-indol-3-ylmethyl)-3-methyl-N-[(tricyclo [3.3.1.1^3,7]dec-2-yloxy)carbonyl]-β-alanyl]-L-2-phenylglycine]"
6,> 10000 nM,"C[C@](Cc1c[nH]c2ccccc12)(NC(=O)OC1C2CC3CC(C2)CC1C3)C(=O)NCCC(=O)N[C@@H](Cc1ccccc1)C(=O)OCc1ccccc1 (stereo partly drawn) [Example 30, L-Phenylalanine,N-[N-[α-methyl-N-[(tricyclo[3.3.1.1^3,7]dec-2-yloxy)carbonyl]-d-tryotoohyl]-β-alanyl]-phenylmethyl ester]"
7,17 nM,CNC(=O)C1CCCCC1NC(=O)[C@@](C)(Cc1c[nH]c2ccccc12)NC(=O)OC1C2CC3CC(C2)CC1C3 (stereo partly shown) [Example 123]
8,103 nM,"C[C@](Cc1c[nH]c2ccccc12)(NC(=O)OC1C2CC3CC(C2)CC1C3)C(=O)NCCC(=O)N[C@H](Cc1ccccc1)C(=O)O (stereo partly drawn) [Example 32, D-Phenylalanine, N-[N-[α-methyl-N-[(tricyclo-[3.3.1.1^3,7]dec-2-yloxy)carbonyl]-D-tryptophyl]-β-alanyl]-]"
9,2.5 nM,"COC[C@H]1CCCN1NC(=O)[C@@](C)(Cc1c[nH]c2ccccc12)NC(=O)OC1C2CC3CC(C2)CC1C3 (stereo partly drawn) [Example 113, Tricyclo [3.3.1.1^3,7]dec-2-yl [R-(R*,R*)]-[-(1H-indol-3-ylmethyl)-2-[[2-(methoxymethyl)-1-pyrrolidinyl]amino]-1-methyl-2-oxoethyl]carbamate]"
10,704 nM,"C[C@](CNC(=O)Cc1ccccc1)(Cc1c[nH]c2ccccc12)NC(=O)OC1C2CC3CC(C2)CC1C3 (stereo partly drawn) [Example 22, Carbamic acid, [1-(1H-indol-3-ylmethyl)-1-methyl-2-[(2-phenylacetyl)amino]ethyl]-, tricyclo[3.3.1.1^3,7]-dec-2-yl ester. (R)-]"
11,53 nM,"C[C@](Cc1c[nH]c2ccccc12)(NC(=O)OC1C2CC3CC(C2)CC1C3)C(=O)NC1CC2CCC1C2 (stereo partly shown) [Example 118, Tricyclo[3.3.1.1^3,7]dec-2yl ester [2-(bicyclo[2.2.1]hept-2-ylamino)-1-(1H-indol-3-ylmethyl)-1-methyl-2-oxoethyl]carbamate]"
12,22 nM,"C[C@](Cc1c[nH]c2ccccc12)(NC(=O)OC1C2CC3CC(C2)CC1C3)C(=O)NCCC(=O)N[C@@H](Cc1ccccc1)C(=O)O (stereo partly drawn) [Example 33, S-Phenylalanine N-[N-[α-methyl-N-[(tricyclo-[3.3.1.1^3,7]dec-2-yloxy)carbonyl]-R-tryptophyl]-β-alanyl]]"
13,1400 nM,C[C@@](Cc1c[nH]c2ccccc12)(NC(=O)OC1C2CC3CC(C2)CC1C3)C(=O)NCCC(=O)N[C@H](Cc1ccccc1)C(N)=O (stereo partly shown) [Example 28]
14,200 nM,"C[C@](CN[C@H](CO)Cc1ccccc1)(Cc1c[nH]c2ccccc12)NC(=O)OC1C2CC3CC(C2)CC1C3 (stereo partly drawn) [Example 6, Tricyclo[3.3.1.1^3,7]dec-2-yl[R-(R*,S*)]-1-[[1(hydroxy-methyl)-2-phenylethyl]amino]-3-(1H-indol-3-yl)-2-methylprop-2-ylcarbamate]"
15,318 nM,"CC(=O)N(C[C@@](C)(Cc1c[nH]c2ccccc12)NC(=O)OC1C2CC3CC(C2)CC1C3)[C@H](CO)Cc1ccccc1 (stereo partly drawn) [Example 8, Tricyclo[3.3.1.1^3,7]dec-2-yl[R-(R*,S*)]-[acetyl[1-(hydroxymethyl)-2-phenylethyl]amino]-2-(1H-indol-3-ylmethyl)prop-2-ylcarbamate]"
16,73 nM,"COC[C@@H]1CCCN1NC(=O)[C@@](C)(Cc1c[nH]c2ccccc12)NC(=O)OC1C2CC3CC(C2)CC1C3 (stereo partly drawn) [Example 112, Tricyclo[3.3.1.1^3.7]dec-2-yl ester [2S-(R*,S*)1 N-[1-(1H-indol-3-ylmethyl)-2-[[2-(methoxymethyl)-1-pyrrolidinyl]amino]-1-methyl-2-oxoethyl]carbamate]"
17,110 nM,N#CC(=Cc1c[nH]c2ccccc12)C(=O)NCCc1ccccc1 [Example 58]
18,808 nM,C[C@](Cc1c[nH]c2ccccc12)(NC(=O)OC1C2CC3CC(C2)CC1C3)C(=S)NCCc1ccccc1 (stereo partly shown) [Example 9]
19,11500 nM,"O=C(N[C@@H](CN[C@H](CO)Cc1ccccc1)Cc1c[nH]c2ccccc12)OC1C2CC3CC(C2)CC1C3 (stereo partly drawn) [Example 1, Tricyclo[3.3.1.1^3,7]dec-2-yl[S-(R)]-[2-[[1 - (hydroxy-methyl)-2-phenylethyl]amino]-1-(1H-indol-3-ylmethyl)ethyl]carbamate]"
20,1120 nM,O=C(N[C@H](CN[C@H](CO)Cc1ccccc1)Cc1c[nH]c2ccccc12)OC1C2CC3CC(C2)CC1C3 (stereo partly shown) [Example 2]
21,1200 nM,"C[C@@](Cc1c[nH]c2ccccc12)(NC(=O)OC1C2CC3CC(C2)CC1C3)C(=O)NCCC(=O)N[C@@H](Cc1ccccc1)C(=O)OCc1ccccc1 (stereo partly drawn) [Example 31, Propanoic acid, 2-[[3-[[3-(1H-indol-3-yl)-2-methyl-1-oxo-2-[[(tricyclo[3.3.1.1^3,7]dec-2-yloxy)carbonyl]amino]propyl]amino]-1-oxopropyl]-amino]-3-phenyl-, phenylmethyl ester, [S-(R*,R*)]-]"
22,2 nM,"CC(Cc1c[nH]c2ccccc12)(NC(=O)OC1C2CC3CC(C2)CC1C3)C(=O)NC1CCCCC1C(=O)O (stereo not shown) [Example 121, 2-[[3-(1H-indol-3-yl)-2-methyl-1-oxo-2-[[(tricyclo-[3.3.1.1^3,7]dec-2-yloxy)carbonyl]amino]propyl]amino]cyclohexanecarboxylic acid]"
23,17 nM,C[C@](CC(=O)OCc1ccccc1)(Cc1c[nH]c2ccccc12)NC(=O)OC1C2CC3CC(C2)CC1C3 (stereo partly shown) [Example 17]
24,110 nM,"C[C@](Cc1c[nH]c2ccccc12)(NC(=O)OC1C2CC3CC(C2)CC1C3)C(=O)N[C@H](C(=O)O)c1ccccc1 (stereo partly drawn) [Example 91, [R-(R*,S)]-α-[[3-(1H-indol-3-yl)-2-methyl-1-oxo-2-[[(tricyclo[3.3.1.1^3,7]dec-2-yloxy)carbonyl]amino]proipyl]amino]benzeneacetic acid, [R-(R*,S*)]-]"
25,39 nM,"CC1CCCCC1NC(=O)C(C)(Cc1c[nH]c2ccccc12)NC(=O)OC1C2CC3CC(C2)CC1C3 (stereo not shown) [Example 117, Tricyclo[3.3.1.1^3,7]dec-2-yl ester[1-(1H-indol-3-ylmethyl)-1-methyl-2[(2-methylcyclohexyl)amino]-2-oxoethyl]carbamate]"
